According to patent publication US12509437B2, “Substituted thiophene carboxamides and derivatives thereof as microbicides” (Bayer Aktiengesellschaft, priority 2019, dated 2025):
Like-named read-outs stand apart in the source and are kept apart here.

Tests used:
[1] = tested on: salicylate responsive promoter sequence of the PR1 (pathogenesis-related protein I) gene (AT2G14610); test: Induction of defense gene expression in Arabidopsis thaliana (PR1 promoter-GFP reporter plants); type: in vivo; conditions: 72 h, 3rd day after spraying, mock treated leaves set as 1.00, read-out: relative fluorescence value
In short: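 Transgenic A. thaliana carrying GFP under the salicylate-responsive PR1 promoter, grown five days, then sprayed with compounds. Whole-plant fluorescence imaged and quantified on day 3 post-spray, expressed relative to mock-treated leaf background set at 1.00.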

[2] = tested on: Xanthomonas campestris pv. campestris; test: Xanthomonas campestris pv. campestris in vitro cell test; type: cell-based; conditions: 24 h of incubation, read-out: efficacy (inhibition of bacteria growth; no direct activity); for inhibition at 5 ppm: 5 ppm of active ingredient; for inhibition at 20 ppm: 20 ppm of active ingredient
In short: (§1)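 Bacteria from liquid pre-culture diluted to set OD in LB broth and exposed to compounds dissolved in DMSO (final ≤1%). After 24 h, growth read by absorbance; inhibition derived relative to compound-free control wells.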

Uromyces appendiculatus = test: In vivo preventive test on Uromyces appendiculatus (bean rust); conditions: 240 h, sprayed 72 hours before inoculation, evaluated 10 days after inoculation, read-out: efficacy; for pest or weed control at 31 ppm: 31 ppm of active ingredient; for pest or weed control at 125 ppm: 125 ppm of active ingredient; for pest or weed control at 500 ppm: 500 ppm of active ingredient
In short: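 Young bean plants sprayed with compound in acetone/DMSO/Tween diluted in water, then inoculated 72 h later with spore suspension. Incubated 24 h at 20° C., 100% RH, then 9 days at 20° C., 70-80% RH. Efficacy scored 10 days post-inoculation, 0% = untreated-control level, 100% = no disease.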

Alternaria alternata = Alternaria alternata in vitro cell test; type: cell-based; conditions: 120 h, 5 days incubation, read-out: efficacy (inhibition of fungal growth; no direct activity); for inhibition at 5 ppm: 5 ppm of active ingredient; for inhibition at 20 ppm: 20 ppm of active ingredient
In short: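 A. alternata spores in glucose/peptone/yeast-extract liquid medium were exposed to DMSO-solubilized compound (final DMSO ≤1%). After 5 days incubation, mycelium growth read spectrometrically; inhibition derived from absorbance relative to fungicide-free control wells.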

Peronospora parasitica = test: In vivo preventive test on Peronospora parasitica (Crucifer downy mildew) on cabbage; conditions: Hyaloperonospora parasitica, 120 h, sprayed 72 hours before inoculation, evaluated 5 days after inoculation, read-out: efficacy; for pest or weed control at 31 ppm: 31 ppm of active ingredient; for pest or weed control at 125 ppm: 125 ppm of active ingredient; for pest or weed control at 500 ppm: 500 ppm of active ingredient
In short: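 Young cabbage plants were sprayed with compound in aqueous acetone/DMSO/Tween, then inoculated 72 h later with P. parasitica spores and held 5 days at 20 °C, 100% RH. Efficacy scored 5 days post-inoculation: 0% equals solvent-treated controls, 100% means no disease.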

[3] = tested on: Colletotrichum lindemuthianum; test: In vivo preventive test on Colletotrichum lindemuthianum (Anthracnose on bean); conditions: Colletotrichum lindemuthianum, 144 h, sprayed 72 hours before inoculation, evaluated 6 days after inoculation, read-out: efficacy; for pest or weed control at 500 ppm: 500 ppm of active ingredient; for pest or weed control at 31 ppm: 31 ppm of active ingredient; for pest or weed control at 125 ppm: 125 ppm of active ingredient
In short: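 Young bean plants were sprayed with compound in acetone/DMSO/Tween diluted in water, then inoculated 72 h later with C. lindemuthianum spores. Incubation was 24 h at 20 °C/100% RH, then 5 days at 20 °C/90% RH. Efficacy scored 6 days post-inoculation: 0% equals solvent-treated control, 100% means no disease.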

[4] = tested on: Pseudomonas syringae pv. tomato; test: Pseudomonas syringae pv. tomato in vitro cell test; type: cell-based; conditions: 20 ppm of active ingredient, 24 h of incubation, read-out: efficacy (inhibition of bacteria growth; no direct activity)
In short: as §1

[5] = tested on: Pseudomonas syringae pv. tomato; test: In vivo preventive test on Pseudomonas syringae pv. tomato (bacterial speck on tomato); conditions: sprayed 72 hours before inoculation, evaluated 5 or 6 days after inoculation, read-out: efficacy; for pest or weed control at 500 ppm: 500 ppm of active ingredient; for pest or weed control at 125 ppm: 125 ppm of active ingredient; for pest or weed control at 31 ppm: 31 ppm of active ingredient
Description: The tested active ingredients were prepared by homogenization in a mixture of acetone/Dimethyl sulfoxide/Tween®, and then diluted with water to obtain the desired active material concentration.
The young plants of tomato were treated by spraying the active ingredient prepared as described above. Control plants were treated only with an aqueous solution of acetone/Dimethyl sulfoxide/Tween®.
After 72 hours, the plants were contaminated by spraying the leaves with an aqueous bacteria suspension of Pseudomonas syringae pv. tomato. The contaminated tomato plants were incubated for 4 days in saturated atmosphere at 22° C. day/20° C. night−70% HR and then for 1 or 2 days at 22° C. day/20° C. night at 70-80% relative humidity.
The test was evaluated 5 or 6 days after the inoculation. 0% means an efficacy which corresponds to that of the control plants while an efficacy of 100% means that no disease was observed.

[6] = LogP by HPLC on reversed phase columns (EEC directive 79/831 Annex V.A8); type: physicochemical; conditions: reversed phase HPLC columns
In short: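 Reversed-phase HPLC, calibrated with straight-chain alkan-2-ones (C3–C16) of known LogP; values by linear interpolation of retention times between successive alkanones. Multiple values from one method are joined by "+"; lambda-max taken from 200–400 nm UV spectra at chromatographic peaks.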

[7] = preparation examples, method not indicated, read-out: Log P

Row | Compound | fold induction at 75 ppm [1] | fold induction at 300 ppm [1] | inhibition at 5 ppm [2] [%] | pest or weed control at 31 ppm (Uromyces appendiculatus) [%] | pest or weed control at 125 ppm (Uromyces appendiculatus) [%] | pest or weed control at 500 ppm (Uromyces appendiculatus) [%] | inhibition at 5 ppm (Alternaria alternata) [%] | inhibition at 20 ppm (Alternaria alternata) [%] | pest or weed control at 31 ppm (Peronospora parasitica) [%] | pest or weed control at 125 ppm (Peronospora parasitica) [%] | pest or weed control at 500 ppm (Peronospora parasitica) [%] | pest or weed control at 500 ppm [3] [%] | inhibition at 20 ppm [4] [%] | pest or weed control at 500 ppm [5] [%] | chromatographic logP ([6]; method [a]) | inhibition at 20 ppm [2] [%] | pest or weed control at 125 ppm [5] [%] | pest or weed control at 31 ppm [3] [%] | pest or weed control at 125 ppm [3] [%] | other results
1 | COC(=O)C(NC(=O)c1sc(Br)c(Br)c1C)C1CC1 (stereo not shown) [I.032] | > 2 | > 2 | ≤ 30 | 90 to 100 | 90 to 100 | 90 to 100 | ≤ 30 | ≤ 30 | 80 to 89 | 90 to 100 | 90 to 100 | 70 to 79 | ≤ 30 | 70 to 79 | 3.41 | – | – | – | – | –
2 | COC(=O)C(NC(=O)c1sc(Cl)c(Cl)c1C)C1CC1 (stereo not shown) [I.081, methyl cyclopropyl{[(4,5-dichloro-3-methyl-2-thienyl)carbonyl]amino}acetate] | > 2 | > 2 | ≤ 30 | – | 90 to 100 | 90 to 100 | ≤ 30 | ≤ 30 | 80 to 89 | 90 to 100 | 90 to 100 | 80 to 89 | ≤ 30 | – | – | ≤ 30 | 70 to 79 | – | – | chromatographic logP [6, 7]: 3.31
3 | COC(=O)CC[C@H](NC(=O)c1sc(Cl)c(Cl)c1C)C(=O)OC [I.122] | > 2 | > 2 | ≤ 30 | – | – | 90 to 100 | ≤ 30 | ≤ 30 | 90 to 100 | 90 to 100 | 90 to 100 | 80 to 89 | ≤ 30 | 80 to 89 | 3.08 | ≤ 30 | 80 to 89 | ≥ 70 | 70 to 79 | pest or weed control at 31 ppm [5]: 70 to 79%
4 | CCOC(=O)C1(NC(=O)c2sc(Cl)c(Cl)c2C)CCC1 [I.047] | – | > 2 | ≤ 30 | 80 to 89 | 90 to 100 | 90 to 100 | ≤ 30 | ≤ 30 | 90 to 100 | 90 to 100 | 90 to 100 | 90 to 100 | ≤ 30 | – | 3.67 | ≤ 30 | 90 to 100 | 90 to 100 | 90 to 100 | pest or weed control at 31 ppm [5]: 70 to 79%
5 | Cc1c(C(=S)NC2(C(=O)O)CC2)sc(Cl)c1Cl [I.060] | > 2 | > 2 | ≤ 30 | 90 to 100 | 90 to 100 | 90 to 100 | ≤ 30 | ≤ 30 | 90 to 100 | 90 to 100 | 90 to 100 | – | ≤ 30 | 70 to 79 | 2.84 | ≤ 30 | – | – | 80 to 89 | –
6 | Cc1c(C(=O)NC(C(=O)O)C2CC2)sc(Cl)c1Cl (stereo not shown) [I.095] | > 2 | > 2 | ≤ 30 | 80 to 89 | 90 to 100 | 90 to 100 | ≤ 30 | ≤ 30 | 80 to 89 | 90 to 100 | 90 to 100 | – | ≤ 30 | 80 to 89 | 2.59 | ≤ 30 | 70 to 79 | – | 70 to 79 | –
7 | CCOC(=O)C(C#N)NC(=O)c1sc(Br)c(Br)c1C (stereo not shown) [I.077] | > 2 | > 2 | ≤ 30 | 70 to 79 | 90 to 100 | 90 to 100 | ≤ 30 | ≤ 30 | 80 to 89 | 90 to 100 | 90 to 100 | 90 to 100 | ≤ 30 | 80 to 89 | 3.22 | ≤ 30 | – | 80 to 89 | 80 to 89 | –
8 | Cc1c(C(=O)NC(C(=O)O)C2CC2)sc(Br)c1Br (stereo not shown) [I.080, cyclopropyl{[(4,5-dibromo-3-methyl-2-thienyl)carbonyl]amino}acetic acid] | > 2 | > 2 | ≤ 30 | – | – | 90 to 100 | ≤ 30 | ≤ 30 | – | 90 to 100 | 90 to 100 | 70 to 79 | ≤ 30 | 70 to 79 | – | ≤ 30 | – | – | – | chromatographic logP [6, 7]: 2.67
